# Measurements reported in the supplement of paper PMC10307832.
# Experiments:
# Assay in all cases: relative viability (nuclei count vs DMSO), 5 days (fraction); higher = more cells survive
# GSK126 + Foretinib = compound: CC[C@H](C)N1C=C(C2=C(C=C(C=C21)C3=CN=C(C=C3)N4CCNCC4)C(=O)NCC5=C(C=C(NC5=O)C)C)C [GSK126] + COc1cc2c(Oc3ccc(NC(=O)C4(C(=O)Nc5ccc(F)cc5)CC4)cc3F)ccnc2cc1OCCCN1CCOCC1 [Foretinib] (partner 0.25 µM)
# Summary of the method: (§1)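 Lung cancer cell lines were pin-tool dosed in 1536-well plates on the day after seeding, with either a lone drug or a fixed anchor-drug dose plus five library-drug doses (not always all listed) in √10 steps. Nuclei were counted on 4× images after 5 days. Relative viability is the ratio of treated-well to vehicle-well nuclei counts, with each value a median of duplicate plates.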
# GSK126 + Pemetrexed = compound: CC[C@H](C)N1C=C(C2=C(C=C(C=C21)C3=CN=C(C=C3)N4CCNCC4)C(=O)NCC5=C(C=C(NC5=O)C)C)C [GSK126] + Nc1nc2[nH]cc(CCc3ccc(C(=O)N[C@@H](CCC(=O)O)C(=O)O)cc3)c2c(=O)[nH]1 [Pemetrexed] (partner 0.2 µM)
# Summary of the method: as §1
# MLN4924 + Dasatinib = compound: NS(=O)(=O)OC[C@@H]1C[C@@H](n2ccc3c(N[C@H]4CCc5ccccc54)ncnc32)C[C@@H]1O [MLN4924] + Cc1nc(Nc2ncc(C(=O)Nc3c(C)cccc3Cl)s2)cc(N2CCN(CCO)CC2)n1 [Dasatinib] (partner 0.075 µM)
# Summary of the method: as §1
# MLN4924 + Pemetrexed = compound: NS(=O)(=O)OC[C@@H]1C[C@@H](n2ccc3c(N[C@H]4CCc5ccccc54)ncnc32)C[C@@H]1O [MLN4924] + Nc1nc2[nH]cc(CCc3ccc(C(=O)N[C@@H](CCC(=O)O)C(=O)O)cc3)c2c(=O)[nH]1 [Pemetrexed] (partner 0.2 µM)
# Summary of the method: as §1
Cell Line,relative viability (GSK126 + Foretinib; first compound 0.08 µM),relative viability (GSK126 + Foretinib; first compound 0.253 µM),relative viability (GSK126 + Foretinib; first compound 0.8 µM),relative viability (GSK126 + Foretinib; first compound 2.53 µM),relative viability (GSK126 + Foretinib; first compound 8 µM),relative viability (GSK126 + Pemetrexed; first compound 0.08 µM),relative viability (GSK126 + Pemetrexed; first compound 0.253 µM),relative viability (GSK126 + Pemetrexed; first compound 0.8 µM),relative viability (GSK126 + Pemetrexed; first compound 2.53 µM),relative viability (GSK126 + Pemetrexed; first compound 8 µM),relative viability (MLN4924 + Dasatinib; first compound 0.04 µM),relative viability (MLN4924 + Dasatinib; first compound 0.1265 µM),relative viability (MLN4924 + Dasatinib; first compound 0.4 µM),relative viability (MLN4924 + Dasatinib; first compound 1.265 µM),relative viability (MLN4924 + Dasatinib; first compound 4 µM),relative viability (MLN4924 + Pemetrexed; first compound 0.04 µM),relative viability (MLN4924 + Pemetrexed; first compound 0.1265 µM),relative viability (MLN4924 + Pemetrexed; first compound 0.4 µM),relative viability (MLN4924 + Pemetrexed; first compound 1.265 µM),relative viability (MLN4924 + Pemetrexed; first compound 4 µM)
201T,1.17,1.1,1.11,1.37,1.33,0.346,0.342,0.329,0.367,0.328,0.69,0.615,0.598,0.319,0.318,0.291,0.312,0.315,0.287,0.257
A549,1.01,0.974,0.922,0.954,0.904,,,,,,,,,,,,,,,
A-427,1.31,0.999,1.07,1.1,1.13,1.03,0.937,1.03,1.08,0.991,0.367,0.529,0.248,0.145,0.179,0.611,0.466,0.333,0.247,0.273
ABC-1,1.31,1.15,0.955,1.14,0.959,,,,,,0.426,0.433,0.302,0.213,0.237,,,,,
BEN,0.712,0.767,0.575,0.683,0.607,0.881,0.715,0.832,0.896,0.785,0.309,0.252,0.198,0.155,0.146,0.602,0.884,0.455,0.28,0.227
CAL-12T,1.13,1.12,1.09,1,1.25,1.31,1.37,1.09,1.13,1.43,0.371,0.336,0.332,0.143,0.105,1.06,1.1,0.67,0.636,0.224
COR-L23,1.06,0.931,0.921,0.932,1.01,0.229,0.194,0.188,0.185,0.183,0.487,0.617,0.507,0.154,0.101,0.193,0.199,0.168,0.163,0.132
COR-L 105,1.23,1.08,0.989,0.871,0.99,1.08,0.987,0.887,1.11,1.12,0.398,0.289,0.33,0.222,0.225,0.901,0.914,0.557,0.305,0.363
Calu-6,1.02,0.934,0.896,0.829,0.978,,,,,,,,,,,,,,,
ChaGo-K-1,1.07,1.06,0.878,1,0.835,0.256,0.269,0.265,0.256,0.254,0.414,0.376,0.323,0.184,0.17,0.272,0.258,0.251,0.179,0.181
EBC-1,0.117,0.113,0.0893,0.102,0.0935,,,,,,,,,,,,,,,
EKVX,0.755,0.881,0.782,0.876,0.903,0.403,0.373,0.413,0.374,0.31,0.588,0.261,0.471,0.193,0.238,0.45,0.411,0.316,0.23,0.174
EMC-BAC-2,1.07,0.964,0.706,0.98,1.03,0.421,0.46,0.46,0.419,0.376,0.584,0.572,0.32,0.191,0.159,0.491,0.537,0.42,0.255,0.277
EPLC-272H,0.809,0.789,0.736,0.742,0.754,0.327,0.327,0.26,0.366,0.322,0.499,0.448,0.071,0.108,0.11,0.242,0.195,0.0979,0.128,0.155
H3255,1.07,0.887,0.894,0.987,0.983,0.596,0.548,0.568,0.898,0.58,0.314,0.349,0.296,0.256,0.235,0.603,0.577,0.396,0.263,0.308
HARA,1.14,0.93,0.874,0.877,0.839,0.247,0.258,0.231,0.215,0.215,0.362,0.358,0.311,0.0814,0.0506,0.215,0.164,0.14,0.0838,0.183
HCC-15,1.08,1.04,1.08,1.04,0.887,0.221,0.229,0.224,0.215,0.238,0.498,0.183,0.132,0.0695,0.0802,0.205,0.158,0.0806,0.0787,0.0939
HCC-44,,,,,,0.65,0.712,0.581,0.602,0.551,,,,,,0.653,0.62,0.484,0.455,0.443
HCC-78,0.561,0.556,0.521,0.63,0.548,0.889,0.866,0.888,0.891,0.871,0.412,0.307,0.604,0.314,0.152,0.882,0.899,0.918,0.881,0.892

Cell Line,relative viability (GSK126 + Foretinib; first compound 0.08 µM),relative viability (GSK126 + Foretinib; first compound 0.253 µM),relative viability (GSK126 + Foretinib; first compound 0.8 µM),relative viability (GSK126 + Foretinib; first compound 2.53 µM),relative viability (GSK126 + Foretinib; first compound 8 µM),relative viability (GSK126 + Pemetrexed; first compound 0.08 µM),relative viability (GSK126 + Pemetrexed; first compound 0.253 µM),relative viability (GSK126 + Pemetrexed; first compound 0.8 µM),relative viability (GSK126 + Pemetrexed; first compound 2.53 µM),relative viability (GSK126 + Pemetrexed; first compound 8 µM),relative viability (MLN4924 + Dasatinib; first compound 0.04 µM),relative viability (MLN4924 + Dasatinib; first compound 0.1265 µM),relative viability (MLN4924 + Dasatinib; first compound 0.4 µM),relative viability (MLN4924 + Dasatinib; first compound 1.265 µM),relative viability (MLN4924 + Dasatinib; first compound 4 µM),relative viability (MLN4924 + Pemetrexed; first compound 0.04 µM),relative viability (MLN4924 + Pemetrexed; first compound 0.1265 µM),relative viability (MLN4924 + Pemetrexed; first compound 0.4 µM),relative viability (MLN4924 + Pemetrexed; first compound 1.265 µM),relative viability (MLN4924 + Pemetrexed; first compound 4 µM)
HCC-366,1.02,0.974,0.907,0.892,0.935,0.179,0.161,0.14,0.149,0.158,0.67,0.702,0.967,0.627,0.0684,0.161,0.153,0.129,0.107,0.0292
HCC-827,1.02,1.02,1.01,1.03,1.09,0.264,0.285,0.249,0.27,0.287,0.483,0.608,0.771,0.265,0.187,0.278,0.271,0.266,0.176,0.17
HOP-62,1.11,1.08,1.01,1.21,1.04,0.335,0.355,0.284,0.289,0.419,0.887,0.742,0.427,0.0794,0.076,0.235,0.175,0.0617,0.0458,0.0811
IA-LM,1.26,1.03,0.994,1.03,1.08,,,,,,,,,,,,,,,
LC-2-ad,1.08,0.971,0.915,0.995,1.07,0.257,0.265,0.278,0.281,0.253,0.551,0.408,0.498,0.144,0.2,0.288,0.27,0.257,0.218,0.221
LCLC-97TM1,1.03,0.942,0.954,1.06,0.994,0.19,0.193,0.171,0.179,0.194,1.01,0.683,0.767,0.113,0.104,0.147,0.18,0.0833,0.0476,0.0536
LCLC-103H,0.86,0.744,0.738,0.926,0.814,0.397,0.499,0.431,0.469,0.538,0.452,0.569,0.653,0.141,0.112,0.477,0.504,0.285,0.315,0.329
LK-2,1.44,1.33,1.28,1.15,1.19,0.306,0.297,0.293,0.325,0.223,0.28,0.261,0.285,0.162,0.196,0.25,0.248,0.203,0.117,0.106
LOU-NH91,0.991,0.953,0.892,0.974,0.969,0.399,0.35,0.376,0.362,0.423,0.554,0.708,0.778,0.494,0.415,0.367,0.366,0.393,0.385,0.343
LU99A,0.826,0.838,0.74,0.746,0.694,0.181,0.165,0.185,0.179,0.155,0.507,0.485,0.321,0.132,0.16,0.185,0.175,0.18,0.189,0.129
LXF-289,0.962,1.01,0.952,0.973,1.02,0.894,0.945,0.933,0.908,0.884,0.215,0.203,0.251,0.0849,0.0735,0.814,0.77,0.567,0.177,0.116
NCI-H23,1,0.313,0.901,1.03,0.98,0.773,0.735,0.687,0.706,0.631,0.722,0.785,0.681,0.335,0.208,0.74,0.842,0.421,0.256,0.213
NCI-H522,,,,,,1.02,0.772,0.95,0.865,1.06,0.845,0.863,0.652,0.546,0.437,0.876,0.859,0.612,0.323,0.383
NCI-H727,1.09,0.981,0.888,1.01,0.744,,,,,,0.374,0.404,0.305,0.293,0.266,,,,,
NCI-H1299,1.14,1.13,1.05,1.07,1.11,,,,,,,,,,,,,,,
NCI-H1623,0.941,0.888,0.916,0.883,0.799,,,,,,0.626,0.573,0.341,0.227,0.183,,,,,
NCI-H1648,,,,,,0.693,0.766,0.884,0.945,0.76,,,,,,0.748,0.76,0.559,0.321,0.359
NCI-H1703,0.354,0.357,0.311,0.373,0.381,,,,,,,,,,,,,,,
NCI-H1792,,,,,,0.89,0.727,0.806,0.698,0.818,0.725,0.819,1.03,0.902,0.762,0.776,0.672,1.35,0.296,0.195
